# ChEMBL document CHEMBL1157539, “Thousands of chemical starting points for antimalarial lead identification” (Nature, 2010)
# Test system: Plasmodium falciparum
# Assay: GSK_TCMDC: Inhibition of Plasmodium falciparum 3D7 in whole erythrocytes, using parasite LDH activity as an index of growth.
# Format: functional, organism-based
SMILES,"XC50 (Plasmodium falciparum, 3D7) [nM]",XC50 [nM]
Cc1cccc2nc(-c3cccc(-c4cccc(CN5CCN(c6ccncc6)CC5)c4)c3)[nH]c12,200,–
Cc1cc2nc(-c3cccc(C(=O)NC4CCN(Cc5ccccc5)CC4)c3)[nH]c2cc1C,828,–
COCCNCc1ncsc1-c1ccc2c(Nc3cc(O)ccc3C)ccnc2c1,705,–
CCOc1cc(C(=O)NCCCN2CCN(c3cccc(Cl)c3)CC2)ccc1-c1nc2cc(Cl)c(F)cc2[nH]1,866,–
COc1ccccc1C1CCN(C2CCC(NC(=O)c3cc(-c4ccc(Cl)cc4)cs3)CC2)CC1 (stereo not given),383,–
COc1cc(OC)cc(-c2nc3ccc(OCCN(C)C)c(C#N)c3[nH]2)c1,655,–
c1ccc(CNc2nc(NCCN3CCCCC3)nc3ccccc23)cc1,1020,–
CC(C)CCN1CCCN(Cc2ccc(C(=O)Nc3ccc(C(C)(C)C)cc3)cc2)CC1,867,–
Cc1cc(NC(=O)c2cccs2)ccc1OC1CCN(Cc2ccc(F)cc2)CC1,481,–
CN(C)c1ccc(NC(=O)Nc2ccnc3ccc(Br)cc23)cc1,872,–
CC(C)(C)c1ccc(CN2CCCCC(NC(=O)c3cc(-c4cccc(F)c4)cs3)C2)cc1 (stereo not given),783,–
CCc1c(C)c(C#N)c2nc3ccccc3n2c1NCc1ccco1,698,–
CC[C@H]1CN2CC[C@H]1C[C@H]2C(O)c1cc(OC)nc2ccccc12 (stereo not given in full),141,–
COc1ccc2ncc(C)c(CCN3CCC(NCc4ccc5c(n4)NC(=O)CS5)CC3)c2c1,546,–
CC(C)CNC(=O)c1cncc(-c2ccc(CN3CCC(N4CCCC4)CC3)cc2)c1,689,–
COc1ccc2nccc(N3CCC(NCc4ccc5c(n4)NC(=O)CS5)CC3)c2n1,860,–
COc1c(F)cc(CC(C)NCC(O)c2cccc(Cl)c2)cc1F (stereo not given),1160,–
O=S(=O)(NCCN1CCCC1)c1ccc(-c2ccccc2CNC2Cc3ccccc3C2)cc1,847,–
CN(C)CCCOc1ccc(CCCCc2ccc(Cl)cc2C(=O)c2ccccc2)cc1,1030,–
Cc1cccc(CNc2nc(C)cc(NCCC(=O)NCCOc3ccccc3)n2)c1,871,–
O=C(Nc1ccc(Cl)cc1)Nc1cccc(-c2cccc(-c3nc4cc(C(F)(F)F)ccc4[nH]3)c2)c1,227,–
CCCCOc1c(CCNCCCCNCCc2cc(F)c3ccccc3c2OCCCC)cc(F)c2ccccc12,629,–
COc1ccc(-c2nc(NC(=O)Cc3ccc(OC)c(OC)c3)sc2C)cc1,1160,–
O=C(/C=C/c1ccc(Cl)c(Cl)c1)NCCCCCN1CCC(NC(=O)c2cc(Cl)ccc2F)CC1,1160,–
CCC(CC)n1c(COC)cc2c3c(N)nc(N)nc3ccc21,5.57,–

SMILES,"XC50 (Plasmodium falciparum, 3D7) [nM]",XC50 [nM]
CCC[C@@H](/C=N/N(C)C(=O)OC(C)(C)C)NC(=O)[C@H](CC(C)C)NC(=O)c1cc2cccc(OC)c2o1,1080,–
Cc1cc(Nc2cccc(C(F)(F)F)c2)nc(N)n1,790,–
Cn1nc(-c2ccc(CNC3CCc4ccccc43)cc2)c2cnc(NCCN3CCCC3)nc21 (stereo not given),1350,–
O=C(Nc1ccc([N+](=O)[O-])cc1O)Nc1ccccc1Oc1ccccc1,925,–
COc1cc(C)c(NC(=O)c2cccc3c(=O)c(C)c(-c4ccccc4)oc23)cc1OC,1630,–
CN1CCN(CC(=O)Nc2cccc(-c3cccc(-c4nc5cc(F)ccc5[nH]4)c3)c2)CC1,741,–
O=C(/C=C/c1ccc(Cl)c(Cl)c1)NCCCCCN1CCN(C(=O)Nc2cccc(F)c2)CC1,874,–
Cc1ncccc1C(=O)Nc1cccc(-c2cccc(-c3nc4cccc(C)c4[nH]3)c2)c1,956,–
COc1ccccc1Oc1c(N(C)S(=O)(=O)c2ccc(C(C)C)cc2)nc(C(F)(F)F)nc1N(C)S(=O)(=O)c1ccc(C(C)C)cc1,846,–
CCN(CC)CCN(Cc1ccc(-c2ccc(C(F)(F)F)cc2)cc1)C(=O)Cn1c(CCc2cccc(F)c2F)nc(=O)c2sccc21,905,–
O=C(/C=C/c1ccc(Cl)c(Cl)c1)N1CCC(CCN2CCC(c3c[nH]c4cc5c(cc34)OCO5)CC2)CC1,732,–
COc1cc(SC)c(Br)cc1-c1nc2ccncc2[nH]1,1100,–
COc1ccc(CNC2CCN(C)CC2)cc1-c1ccc(S(=O)(=O)NCC2CCCO2)s1 (stereo not given),800,–
CCN1CCN(C(=O)NC(C(=O)N(C)Cc2ccc(-c3ccc(C(F)(F)F)cc3)cc2)c2cccs2)C(=O)C1=O (stereo not given),356,–
COC(=O)c1ccc(OCC(C)NCC(O)c2cccc(C(F)(F)F)c2)cc1 (stereo not given),838,–
COc1cc(NC(=O)CCCN2CCN(c3cccc(Cl)c3Cl)CC2)ccc1N1CCN(C(C)C)CC1,946,–
O=C(Nc1ccccc1Cl)NC1CCC(CN2CCC(c3c[nH]c4ccccc34)CC2)CC1 (stereo not given),803,753
COc1cccc2cc(C(=O)N[C@@H](CC(C)C)C(=O)N[C@H](/C=N/N(C)C(=O)OC(C)(C)C)CC(=O)OC(C)(C)C)oc12,654,–
CCN(CC)CCCC(C)Nc1ccnc2ccc(-c3ccccc3)cc12 (stereo not given),652,–
O=C(NCCCCN1CCC2c3cccc(O)c3CCC21)c1ccc(-c2ccccc2)cc1 (stereo not given),1380,–
Cc1cc([N+](=O)[O-])ccc1N1CCN(CCCCNC(=O)c2ccc(NC(=O)c3ccc(Cl)cc3)cc2)CC1,887,–
Cc1cccc2nc(-c3cccc(-c4ccc(CNCc5ccccc5)cc4)c3)[nH]c12,148,–
Cc1[nH]c(C)c(-c2ccc(OCc3ccc(OC(F)(F)F)cc3)nc2)c(=O)c1Br,140,–
Clc1cccc(CNC2CCN(CC3CCCCC3)CC2)c1,912,–
CCN(CC)CCCC(C)Nc1c2ccc(Cl)cc2nc2ccc(OC)cc12 (stereo not given),44.1,–

SMILES,"XC50 (Plasmodium falciparum, 3D7) [nM]",XC50 [nM]
O=C(Nc1cccc(C(F)(F)F)c1)Nc1ccc(Cl)c(C(F)(F)F)c1,890,–
O=C(C=Cc1ccc(Br)cc1)N1CCC(CCN2CCC(c3c[nH]c4ccccc34)CC2)CC1,919,–
O=C(Nc1cccc(Cl)c1Cl)N1CCc2cc3nccc(N4CCN5CCC[C@H]5C4)c3cc21,1040,–
Cc1nnsc1C(=O)Nc1ccc(-c2cccc(-c3nc4cc(C(F)(F)F)ccc4[nH]3)c2)cc1,838,–
COc1cc(CNCCCNc2nc(=O)c3sccc3[nH]2)c2[nH]cc(Cl)c2c1,888,–
COc1ccccc1-n1c(SCC(=O)c2ccc3c(c2)CC(=O)N3C)nnc1-c1cccs1,963,–
Cc1cccc2nc(-c3ccc(-c4cccc(NC(=O)NCc5cccc(F)c5)c4)s3)[nH]c12,760,–
CCCN(CCC)CCCNc1ccc(C(=O)Nc2ccc(C)c(F)c2)cc1[N+](=O)[O-],539,–
Nc1cc(-c2ccc3c(N)nccc3c2)ccc1Cl,1540,–
COc1cccc(C=Cc2nc(=O)c3ccccc3o2)c1OC,64.4,–
Cc1ccc(CC(C)(C)NCC(O)c2cccc(C(F)(F)F)c2)cc1 (stereo not given),836,–
O=C(Cc1c[nH]cn1)Nc1cccc(-c2ccc(-c3nc4cc(C(F)(F)F)ccc4[nH]3)s2)c1,773,–
COc1cc(N)c(Cl)cc1C(=O)NC1CCC(NCC2CCCCC2)CC1 (stereo not given),426,–
CC(C(=O)N1CCCC1)N1CCN(S(=O)(=O)c2ccc(C(C)(C)C)cc2)CC1 (stereo not given),636,–
Cc1ccc2[nH]cc(C3CCN(CC4CCC(NC(=O)/C=C/c5ccc(Cl)c(Cl)c5)CC4)CC3)c2c1 (stereo not given),840,552
Nc1cccc(C=CC(=O)N=c2cc[nH]c3ccccc23)c1,1060,–
O=C(c1ccco1)c1cn(CCOc2ccccc2)c2ccccc12,748,–
[O-][s+]1c(Cl)c(-c2ccc(Cl)cc2)c2ccc(Cl)cc21 (stereo not given),993,–
Nc1nc(Nc2cccc(O)c2)nc2ccccc12,791,–
COc1ccc(-c2nc3c4ccccc4c4ccc(I)cc4c3[nH]2)cc1,1100,–
CC(C)Cn1c(Sc2ccc(C#N)c([N+](=O)[O-])c2)nnc1-c1cccs1,1080,–
Cc1cccc2nc(-c3ccc(-c4cccc(CN5CCC(CCN6CCCCC6)CC5)c4)s3)[nH]c12,140,–
CCOc1ccc(Br)cc1/C=C/C(=O)Nc1ccc2c(c1)CCCN(C)C2,1050,–
O=C(N[C@H]1CCN(Cc2ccc(OCCCN3CCCCC3)cc2)C1)c1ccc2ccccc2c1,764,–
NC1=NC(Cc2ccccc2)(c2ccncc2)C(=O)N1CCCc1ccccc1 (stereo not given),936,–

SMILES,"XC50 (Plasmodium falciparum, 3D7) [nM]",XC50 [nM]
COc1ccc(Cl)cc1NC(=O)C(C)N1CCN(S(=O)(=O)c2ccccc2F)CC1 (stereo not given),672,–
CO/C(=C\C=C\c1cc2cc(Cl)c(Cl)cc2[nH]1)C(=O)NCCCN1CCN(c2cccc(O)c2)CC1,579,–
Cc1cc(-c2ccc(O)c(CNC3CCCCC3)c2)cnc1N,203,–
Cc1cc(C2CCN(CCCCNC(=O)c3ccc(-c4ccc(C(F)(F)F)cc4)cc3)CC2)c(C)cc1OCC#N,1010,–
CN1CCN(c2ccc3[nH]c(-c4ccc(Cc5cc(Cl)ccc5OCc5ccccc5)o4)nc3c2)CC1,807,–
Cc1cc(N2CCN(C)CC2)nc2ccc(NC(=O)Cc3cccc(C(F)(F)F)c3)cc12,737,–
COc1ccccc1-n1c(SCC(=O)Nc2ccccc2F)nc2cccnc21,417,–
Cc1nn(-c2ccccc2)nc1C(=O)NC1CCN(CCNC(=O)c2ccc(Cl)c(Cl)c2)CC1,868,–
CS(=O)(=O)Nc1ccc2[nH]cc(C3CCN(CC4CCC(NC(=O)/C=C/c5ccccc5Cl)CC4)CC3)c2c1 (stereo not given),793,–
CCN1CCc2c1cc(C(=O)N[C@@H](Cc1ccccc1)[C@H](O)CNC(C)(C)c1cccc(C(F)(F)F)c1)cc2N1CCCCS1(=O)=O,109,–
COc1cc2s/c(=N\C(=O)c3cccc([N+](=O)[O-])c3)n(C)c2cc1OC,722,–
COc1ccc(NC(=O)N2CCCN(CCCCCNC(=O)/C=C/c3ccc(Cl)cc3)CC2)cc1Cl,814,–
COc1cc(CCN(C)Cc2ccc(OC)c(OC)c2)ccc1NC(=O)c1cccc2c(O)c3cccc(F)c3nc12,203,–
COc1cccc(C(=O)NCCOc2ccccc2)c1Oc1ccccc1,918,–
CCC1(CC)C(=O)N=C(N2CCCCC2)N(C)C1=O,303,–
N#Cc1ccc(N2CCN(C(=O)c3cccc(-c4noc(C(F)(F)F)n4)c3)CC2)nc1,220,–
Cc1ccccc1OCCCN1CCN(CC(c2ccc(F)cc2)N2CCN(C(C)C)CC2)CC1 (stereo not given),1410,–
C=CCc1ccccc1OCC(O)CN(C1CCCCC1)C1CCCCC1 (stereo not given),814,–
Cc1nc(N)nc(N)c1CCCOc1ccccc1Cl,224,–
CN(C)C(CNC(=O)c1cc(-c2ccncc2)c(-c2ccc(Cl)c(O)c2)o1)c1ccccc1 (stereo not given),843,–
Cc1ccc(O)c(CN2CCCC(COC(c3ccc(F)cc3)c3ccc(F)cc3)C2)c1 (stereo not given),715,–
CC(C)(C)c1ccc(Cc2cccc3nc(N)nc(N)c23)cc1,834,–
CSc1nnc2n(Cc3ccccc3)c(=O)c3c(n12)-c1ccccc1CC31CCCCC1,969,–
